In patent US20220017566A1, “TERPINOID DERIVATIVES AND USES THEREOF” (SICHUAN HAISCO PHARMACEUTICAL CO., LTD., priority 2018, published 2022):
Read-outs that look alike come from different tables or passages of the source.

What was measured:
[1] = Metabolic stability in human liver microsomes; type: in vitro ADME
Description: (§1) The metabolic stability of test compounds was examined in CD-1 mouse, Sprague Dawley rat, Beagle dog, cynomolgus monkey, and human liver microsomes. Test compound (final concentration 1 μM) was mixed with diluted liver microsomes from each of the 5 species and a small aliquot was taken at 0, 5, 10, 20, 30, and 60 minutes for LC/MS/MS analysis. Intrinsic clearance and half-life were calculated.

[2] = Metabolic stability in dog liver microsomes; type: in vitro ADME; conditions: Beagle
Description: as §1

[3] = molecular target: T1, CYP2C9 (Homo sapiens, UniProt P11712); experiment: CYP450 enzyme inhibition in liver microsomes (cocktail probe incubation); type: in vitro ADME; conditions: species not given, 0.05-50 μM tested
T1 construct: studied in liver microsomes of CD-1 mouse, Sprague Dawley rat, Beagle dog, cynomolgus monkey, and human; from tissue; host or cells: liver microsomes
Description: (§2) The inhibition potential of test compounds towards major drug metabolizing CYP450 enzymes was studied in liver microsomes of CD-1 mouse, Sprague Dawley rat, Beagle dog, cynomolgus monkey, and human. The inhibition of CYP1A2, CYP2C9, CYP2C19, CYP2D6, and CYP3A4 was assessed using CYP450 specific probe reactions in a cocktail incubation. Seven concentrations of test compounds (0.05, 0.15, 0.5, 1.5, 5, 15, and 50 μM) were evaluated. In addition, known inhibitors for each probe reaction were included as positive controls and incubated at a single concentration above their respective IC50.

[4] = molecular target: T2, CYP3A4 (Homo sapiens, UniProt P08684); experiment: as above; type: in vitro ADME; conditions: species not given, 0.05-50 μM tested
T2 construct: studied in liver microsomes of CD-1 mouse, Sprague Dawley rat, Beagle dog, cynomolgus monkey, and human; from tissue; host or cells: liver microsomes
Description: as §2

[5] = molecular target: T3, CYP1A2 (Homo sapiens, UniProt P05177); experiment: as above; type: in vitro ADME; conditions: species not given, 0.05-50 μM tested
T3 construct: studied in liver microsomes of CD-1 mouse, Sprague Dawley rat, Beagle dog, cynomolgus monkey, and human; from tissue; host or cells: liver microsomes
T3 sequence (P05177 1-516): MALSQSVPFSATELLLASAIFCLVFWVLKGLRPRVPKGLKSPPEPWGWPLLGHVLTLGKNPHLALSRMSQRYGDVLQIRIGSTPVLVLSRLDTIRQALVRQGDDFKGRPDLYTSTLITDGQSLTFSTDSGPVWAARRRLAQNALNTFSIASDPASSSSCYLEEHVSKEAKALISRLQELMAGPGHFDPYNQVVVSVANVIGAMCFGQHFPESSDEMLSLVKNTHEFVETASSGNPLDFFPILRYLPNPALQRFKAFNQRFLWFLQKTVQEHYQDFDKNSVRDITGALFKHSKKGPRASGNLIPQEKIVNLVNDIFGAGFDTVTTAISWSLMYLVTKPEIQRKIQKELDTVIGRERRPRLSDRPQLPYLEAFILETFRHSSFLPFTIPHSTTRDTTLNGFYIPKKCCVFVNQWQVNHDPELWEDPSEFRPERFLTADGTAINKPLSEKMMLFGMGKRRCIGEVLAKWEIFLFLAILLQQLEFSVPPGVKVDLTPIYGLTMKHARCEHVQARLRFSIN
Description: as §2

[6] = molecular target: T4, CYP2C19 (Homo sapiens, UniProt P33261); experiment: as above; type: in vitro ADME; conditions: species not given, 0.05-50 μM tested
T4 construct: studied in liver microsomes of CD-1 mouse, Sprague Dawley rat, Beagle dog, cynomolgus monkey, and human; from tissue; host or cells: liver microsomes
Description: as §2

[7] = molecular target: T5, CYP2D6 (Homo sapiens, UniProt P10635); experiment: as above; type: in vitro ADME; conditions: species not given, 0.05-50 μM tested
T5 construct: studied in liver microsomes of CD-1 mouse, Sprague Dawley rat, Beagle dog, cynomolgus monkey, and human; from tissue; host or cells: liver microsomes
Description: as §2

[8] = Metabolic stability in monkey liver microsomes; type: in vitro ADME, cynomolgus monkey
Description: as §1

[9] = Metabolic stability in mouse liver microsomes; type: in vitro ADME, CD-1 mouse; conditions: CD-1
Description: as §1

[10] = tested on: IFNγ-induced NO production in Raw 264.7 cells; experiment: Nitric oxide assay: suppression of IFNγ-induced NO production (Griess nitrite, adjusted to live cell numbers); type: cell-based; conditions: Mus musculus, RAW264.7, 2 h pretreatment, IFNγ 10 ng/ml for 24 hours
Description: Raw 264.7 cells were seeded in 96-well plates at a density of 30, 000 cells per well in DMEM+10% FBS and incubated overnight. The next day, cell media was replaced by DMEM+2% FBS. Cells were pretreated with DMSO or test compounds (top dose 100 nM, 1:4 serial dilution, 10-point) for 2 hours and then treated with recombinant mouse IFNγ (R&D, Cat# 485-MI-100) at a final concentration of 10 ng/ml for 24 hours. Nitrite levels were measured in culture media as a surrogate for nitric oxide using the Griess Reagent System (Promega, Cat# G2930). Cell viability was determined using CellTiter Glo reagents (Promega, Cat#G7572). The nitrite levels were adjusted to live cell numbers and inhibition percentage was calculated. The inhibition percentage was then plotted against compound concentration, and IC50 values were calculated using four-parameter algorithm in Graphpad Prism.

[11] = Metabolic stability in rat liver microsomes; type: in vitro ADME; conditions: Sprague Dawley
Description: as §1

[12] = Pharmacokinetic studies in Sprague Dawley rats (oral gavage and IV); type: in vivo; conditions: rat, male SD rats, plasma; for AUC(0-t): read-out: AUC0-24 h; for bioavailability: oral 5 mg/kg vs IV 1 mg/kg, read-out: Bioavailibility F %
Description: The pharmacokinetics of test compounds was evaluated in male SD rats when administered via oral gavage and IV injection. For oral dosing, compound was formulated in 0.5% methylcellulose and administered at doses of 5 mg/kg (3 rats per dose level) and volume of 10 mL/kg. For IV dosing, compound was formulated in 5% DMSO/5% Solutol/90% saline and administered to 3 rats at a dose of 1 mg/kg and a volume of 5 mL/kg. The rats were fasted overnight before administration. Plasma samples were collected predose and at 0.5, 1, 3, 6, 9, 12, and 24 hours postdose. The samples were analyzed by LC/MS/MS and the concentration of test compound at each timepoint was determined by linear regression. Pharmacokinetic parameters were calculated from the plasma concentrations using Pheonix WinNonlin.

T1 sequence (P11712 whole entry): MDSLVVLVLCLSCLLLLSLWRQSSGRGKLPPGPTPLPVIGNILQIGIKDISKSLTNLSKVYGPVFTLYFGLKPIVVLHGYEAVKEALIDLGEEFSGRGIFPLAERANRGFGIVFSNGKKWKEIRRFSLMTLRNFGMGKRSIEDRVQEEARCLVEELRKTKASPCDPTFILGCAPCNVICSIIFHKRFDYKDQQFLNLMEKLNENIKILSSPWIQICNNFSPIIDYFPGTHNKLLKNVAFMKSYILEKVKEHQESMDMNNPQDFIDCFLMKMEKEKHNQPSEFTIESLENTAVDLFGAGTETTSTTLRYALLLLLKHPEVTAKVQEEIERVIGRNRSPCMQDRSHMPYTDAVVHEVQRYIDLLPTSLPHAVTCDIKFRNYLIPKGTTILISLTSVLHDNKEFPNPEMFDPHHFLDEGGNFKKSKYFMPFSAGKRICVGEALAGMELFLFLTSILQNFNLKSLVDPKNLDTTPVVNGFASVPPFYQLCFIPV
T4 sequence (P33261 whole entry): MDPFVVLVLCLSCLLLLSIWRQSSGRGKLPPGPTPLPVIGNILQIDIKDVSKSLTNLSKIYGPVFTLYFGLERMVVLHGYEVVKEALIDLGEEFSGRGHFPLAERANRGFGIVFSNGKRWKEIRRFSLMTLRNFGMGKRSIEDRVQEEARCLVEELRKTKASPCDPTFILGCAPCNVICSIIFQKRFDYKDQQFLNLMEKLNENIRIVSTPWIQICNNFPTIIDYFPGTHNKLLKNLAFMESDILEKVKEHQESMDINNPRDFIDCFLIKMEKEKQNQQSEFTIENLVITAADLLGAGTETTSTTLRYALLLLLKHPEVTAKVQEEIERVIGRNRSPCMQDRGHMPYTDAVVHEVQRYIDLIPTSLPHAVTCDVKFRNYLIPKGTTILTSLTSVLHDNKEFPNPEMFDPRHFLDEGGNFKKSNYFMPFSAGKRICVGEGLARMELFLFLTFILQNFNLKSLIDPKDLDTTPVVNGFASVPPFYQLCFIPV
T5 sequence (P10635 whole entry): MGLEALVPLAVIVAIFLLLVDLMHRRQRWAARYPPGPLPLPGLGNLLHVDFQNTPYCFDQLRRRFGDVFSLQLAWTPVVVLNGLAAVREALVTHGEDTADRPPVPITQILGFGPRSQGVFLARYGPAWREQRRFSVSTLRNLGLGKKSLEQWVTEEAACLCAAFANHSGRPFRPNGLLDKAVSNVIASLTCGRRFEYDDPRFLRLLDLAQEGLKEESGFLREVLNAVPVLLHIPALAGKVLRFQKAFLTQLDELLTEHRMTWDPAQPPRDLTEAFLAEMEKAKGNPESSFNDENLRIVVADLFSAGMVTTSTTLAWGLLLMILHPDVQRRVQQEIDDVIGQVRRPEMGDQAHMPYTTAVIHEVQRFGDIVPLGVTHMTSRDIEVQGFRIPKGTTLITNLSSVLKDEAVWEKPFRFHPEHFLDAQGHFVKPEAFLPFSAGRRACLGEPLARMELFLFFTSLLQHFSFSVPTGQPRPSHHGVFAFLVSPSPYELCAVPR
T2 sequence (P08684 whole entry): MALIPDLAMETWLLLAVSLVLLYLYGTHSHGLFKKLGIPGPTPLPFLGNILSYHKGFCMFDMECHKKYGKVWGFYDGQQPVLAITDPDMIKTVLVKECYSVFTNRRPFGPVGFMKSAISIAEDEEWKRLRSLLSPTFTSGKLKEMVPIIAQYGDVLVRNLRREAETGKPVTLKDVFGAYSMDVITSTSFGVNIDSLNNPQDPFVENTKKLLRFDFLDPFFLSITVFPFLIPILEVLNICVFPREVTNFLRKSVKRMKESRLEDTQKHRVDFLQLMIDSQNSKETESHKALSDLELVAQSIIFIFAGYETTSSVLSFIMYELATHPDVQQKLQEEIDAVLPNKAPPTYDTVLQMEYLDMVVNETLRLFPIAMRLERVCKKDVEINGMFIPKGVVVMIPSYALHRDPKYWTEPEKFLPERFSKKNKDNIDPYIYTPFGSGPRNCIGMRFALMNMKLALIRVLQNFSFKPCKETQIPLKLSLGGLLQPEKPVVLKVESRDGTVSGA

| SMILES | CLint scaled at 1 μM [1] | half-life at 1 μM [1] | CLint scaled at 1 μM [2] | half-life at 1 μM [2] | IC50 [3] | IC50 [4] | IC50 [5] | IC50 [6] | IC50 [7] | CLint scaled at 1 μM [8] | half-life at 1 μM [8] | CLint scaled at 1 μM [9] | half-life at 1 μM [9] | IC50 [10] | CLint scaled at 1 μM [11] | half-life at 1 μM [11] | C0 ([12]; IV (1 mg/kg)) | clearance ([12]; IV (1 mg/kg)) | half-life ([12]; IV (1 mg/kg)) | AUC(0-t) ([12]; IV (1 mg/kg)) | also measured |
| --- | --- | --- | --- | --- | --- | --- | --- | --- | --- | --- | --- | --- | --- | --- | --- | --- | --- | --- | --- | --- | --- |
| CC1(C)C(=O)C(C#N)=C[C@]2(C)C3=CC(=O)[C@@H]4[C@@H]5C[C@@](C)(Cc6nnco6)CC[C@]5(C)CC[C@@]4(C)[C@]3(C)CC[C@@H]12 [Example 14, (4aR,6aS,6bR,8aR,11S,12aS,12bR,14bS)-11-((1,3,4-oxadiazol-2-yl)methyl)-4,4,6a,6b,8a,11,14b-heptamethyl-3,13-dioxo-3,4,4a,5,6,6a,6b,7,8,8a,9,10,11,12,12a,12b,13,14b-octadecahydropicene-2-carbonitrile] | 87.9 mL/min/kg | 14.2 min | 228 mL/min/kg | 8.8 min | 3 µM | 1 µM | > 50 µM | 6.2 µM | 10.3 µM | 602 mL/min/kg | 3.1 min | 1460 mL/min/kg | 3.8 min | < 0.01 µM | 695 mL/min/kg | 3.6 min |  |  |  |  |  |
| CC1(C)C(=O)C(C#N)=C[C@]2(C)C3=CC(=O)[C@@H]4[C@@H]5C[C@@](C)(N6C(=O)CCC6=O)CC[C@]5(C)CC[C@@]4(C)[C@]3(C)CC[C@@H]12 [Example 18, (4aR,6aS,6bR,8aS,11S,12aS,12bR,14bS)-11-(2,5-dioxopyrrolidin-1-yl)-4,4,6a,6b,8a,11,14b-heptamethyl-3,13-dioxo-3,4,4a,5,6,6a,6b,7,8,8a,9,10,11,12,12a,12b,13,14b-octadecahydropicene-2-carbonitrile] |  |  |  |  | 4.7 µM | 2.1 µM | > 50 µM | 19.6 µM | > 50 µM |  |  |  |  | < 0.01 µM |  |  | 472 ng/mL | 62.5 mL/min/kg | 84 min | 267 ng·h/mL | Cmax ([12]; Oral (5 mg/kg)): 50 ng/mL; half-life ([12]; Oral (5 mg/kg)): 138 min; AUC(0-t) ([12]; Oral (5 mg/kg)): 181 ng·h/mL; bioavailability [12]: 13.6% |
| CC1(C)C(=O)C(C#N)=C[C@]2(C)C3=CC(=O)[C@@H]4[C@@H]5C[C@@](C)(c6nnco6)CC[C@]5(C)CC[C@@]4(C)[C@]3(C)CC[C@@H]12 [Example 9, (4aR,6aS,6bR,8aS,11S,12aS,12bR,14bS)-4,4,6a,6b,8a,11,14b-heptamethyl-11-(1,3,4-oxadiazol-2-yl)-3,13-dioxo-3,4,4a,5,6,6a,6b,7,8,8a,9,10,11,12,12a,12b,13,14b-octadecahydropicene-2-carbonitrile] | 94 mL/min/kg | 13.3 min | 104 mL/min/kg | 19.1 min | 3.1 µM | 0.3 µM | > 50 µM | 13.3 µM | 28.7 µM | 270 mL/min/kg | 6.9 min | 186 mL/min/kg | 29.5 min | < 0.01 µM | 72.1 mL/min/kg | 34.6 min | 427 ng/mL | 56 mL/min/kg | 90 min | 301 ng·h/mL | Cmax ([12]; Oral (5 mg/kg)): 143 ng/mL; half-life ([12]; Oral (5 mg/kg)): 132 min; AUC(0-t) ([12]; Oral (5 mg/kg)): 333 ng·h/mL; bioavailability [12]: 22.1% |
